Broadly, the EC50 is the concentration needed to bring the measured effect to its halfway point.

Here are results for 23 molecules from ChEMBL document CHEMBL5728596, “Inhibitors of cysteine proteases and methods of use thereof” (2021).

This experiment can be described thus: Evaluation of Antiviral Activity of Compounds Against Human Coronavirus (HCov) 229E and OC43 in the Cytopathic Effect (CPE) Assays: Compounds were assayed using standard methods against multiple coronaviral strains, including HCoV 229E and OC43 strains. […] The antiviral activity of compounds was calculated based on the protection of the virus-induced CPE at each concentration normalized by the virus control.
Consider `COc1cccc2[nH]c(C(=O)N[C@@H](CC(C)(F)F)C(=O)N[C@H](C#N)C[C@@H]3CCNC3=O)cc12` (single isomer, unassigned), for which the concentration giving a half-maximal response (EC50) was < 22 µM.

Take `COc1cccc2[nH]c(C(=O)N[C@@H](CC(C)C)C(=O)N[C@@H](C[C@@H]3CCNC3=O)[C@H](C#N)N3CCCC3)cc12` (single isomer, unassigned): the EC50 is < 22 µM.

For the molecule `COc1cccc2[nH]c(C(=O)N[C@@H](CC(C)C)C(=O)N[C@@H](C[C@@H]3CCNC3=O)C(C#N)Nc3ccccc3)cc12` (stereo partly drawn), the concentration for a half-maximal effect (EC50) is 6 µM.

`COc1cccc2[nH]c(C(=O)N3C[C@H](OC)C[C@H]3C(=O)N[C@H](C#N)C[C@@H]3CCNC3=O)cc12`: the half-maximal effective concentration (EC50) is < 22 µM.

As for `N#C[C@H](C[C@@H]1CCCNC1=O)NC(=O)C1CC2(CCCCC2)CN1C(=O)c1cc2cccc(Cl)c2[nH]1` (single isomer, unassigned; isomer 1), the EC50 was < 22 µM.

With `N#C[C@H](C[C@@H]1CCNC1=O)NC(=O)[C@H](CC1CC1)NC(=O)c1cc2cccc(Cl)c2[nH]1`, the EC50 is < 22 µM.

On to `COc1cccc2[nH]c(C(=O)N[C@@H](CC(C)C)C(=O)NC(C#N)c3cccnc3)cc12` (stereo partly drawn), for which the EC50 was 6 µM.

On to `COc1cccc2[nH]c(C(=O)N[C@@H](CC(C)(C)C)C(=O)N[C@H](C#N)C[C@@H]3CCCNC3=O)cc12`, for which the EC50 is < 22 µM.

Consider `COc1cccc2[nH]c(C(=O)N3C[C@H](C45CC(C4)C5)C[C@H]3C(=O)N[C@H](C#N)C[C@@H]3CCNC3=O)cc12` (single isomer, unassigned), for which the EC50 was < 22 µM.

For `COc1cccc2[nH]c(C(=O)N[C@@H](CC(C)C)C(=O)N[C@@H](C[C@@H]3CCNC3=O)[C@@H](C#N)N3CCCC3)cc12` (single isomer, unassigned), the EC50 is < 22 µM.

Turning to `COc1cccc2[nH]c(C(=O)N[C@@H](CC(C)C)C(=O)N[C@H](C#N)C[C@@H]3CCNC3=O)cc12`, the EC50 was < 22 µM.

As for `N#C[C@H](C[C@@H]1CCCNC1=O)NC(=O)[C@@H]1CC2(CCCCC2)CN1C(=O)c1cc2ccc(Cl)cc2[nH]1` (single isomer, unassigned), the EC50 is < 22 µM.

Take `COc1cccc2[nH]c(C(=O)N[C@@H](CC3CCC3)C(=O)N[C@H](C#N)C[C@@H]3CCNC3=O)cc12`: the EC50 is < 22 µM.

Turning to `CC(C)C[C@H](NC(=O)c1nc2ncccc2[nH]1)C(=O)N[C@H](C#N)C[C@@H]1CCNC1=O`, the EC50 is 6 µM.

With `CC(C)C[C@H](NC(=O)c1cc2c(OC(F)F)cccc2[nH]1)C(=O)N[C@H](C#N)C[C@@H]1CCNC1=O`, the EC50 was < 22 µM.

Turning to `COc1cccc2[nH]c(C(=O)N[C@@H](CC(C)C)C(=O)N[C@H](/C=C/S(C)(=O)=O)C[C@@H]3CCNC3=O)cc12`, the EC50 was > 30 µM.

As to `COc1cccc2[nH]c(C(=O)N[C@@H](CC(C)C)C(=O)N[C@@H](C[C@@H]3CCNC3=O)C(C#N)NCC(=O)O)cc12` (stereo partly drawn), the EC50 was < 22 µM.

Turning to `CCCN1C(=N)C([C@H](C[C@@H]2CCNC2=O)NC(=O)[C@H](CC(C)C)NC(=O)c2cc3c(OC)cccc3[nH]2)OC1=O` (stereo partly drawn), the EC50 is > 30 µM.

As to `COc1cccc2[nH]c(C(=O)N3C[C@@H](C45CC(C4)C5)C[C@H]3C(=O)N[C@H](C#N)C[C@@H]3CCNC3=O)cc12` (single isomer, unassigned), the EC50 is < 22 µM.

For `COc1cccc2[nH]c(C(=O)N3C[C@H](SC)C[C@H]3C(=O)N[C@H](C#N)C[C@@H]3CCNC3=O)cc12`, the 50% effective concentration (EC50) is 6 µM.

For the molecule `CCCOc1cccc2[nH]c(C(=O)N[C@@H](CC(C)C)C(=O)N[C@H](C#N)C[C@@H]3CCNC3=O)cc12`, the EC50 was < 22 µM.

On to `N#C[C@H](C[C@@H]1CCCNC1=O)NC(=O)C1CC2(CN1C(=O)c1cc3cccc(Cl)c3[nH]1)CC(F)(F)C2` (single isomer, unassigned), for which the concentration giving a half-maximal response (EC50) was < 22 µM.

Consider `N#C[C@H](C[C@@H]1CCNC1=O)NC(=O)[C@H](CC1CC1)NC(=O)c1cc2cc(Cl)ccc2[nH]1`, for which the EC50 is < 22 µM.
